One experiment deals with yeast HSP90 (Saccharomyces cerevisiae, UniProt P02829). Put plainly: Hsp90 ATPase assay (malachite green). The class given is biochemical. The procedure: (§1) For present invention, the ATPase activity of yeast HSP90 was measured using malachite green assay. Formula I compounds for primary antitumoral activity were treated in human colorectal cancer cells (HCT116) showing increased expression levels of HSP90 client protein and cotoxicity IC50 values was measured as a result.
yeast HSP90, sequence (P02829 whole entry): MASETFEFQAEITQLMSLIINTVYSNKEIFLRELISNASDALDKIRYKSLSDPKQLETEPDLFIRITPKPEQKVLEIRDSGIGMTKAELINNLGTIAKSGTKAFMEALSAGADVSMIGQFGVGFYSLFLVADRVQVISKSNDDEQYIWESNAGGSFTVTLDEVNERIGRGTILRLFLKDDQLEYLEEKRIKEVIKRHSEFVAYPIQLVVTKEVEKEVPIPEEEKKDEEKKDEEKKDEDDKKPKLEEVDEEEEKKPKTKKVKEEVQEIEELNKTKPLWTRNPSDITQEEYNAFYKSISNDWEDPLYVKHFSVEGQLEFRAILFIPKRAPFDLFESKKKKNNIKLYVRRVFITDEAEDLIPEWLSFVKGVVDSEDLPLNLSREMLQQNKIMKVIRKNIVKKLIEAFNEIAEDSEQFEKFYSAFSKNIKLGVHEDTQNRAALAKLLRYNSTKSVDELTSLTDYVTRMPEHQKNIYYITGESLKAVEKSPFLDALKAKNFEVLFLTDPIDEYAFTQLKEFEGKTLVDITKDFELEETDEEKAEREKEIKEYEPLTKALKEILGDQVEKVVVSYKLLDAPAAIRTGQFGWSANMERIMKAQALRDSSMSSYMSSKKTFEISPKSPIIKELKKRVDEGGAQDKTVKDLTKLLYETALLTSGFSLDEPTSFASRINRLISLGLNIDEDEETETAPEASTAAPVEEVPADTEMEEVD

Experiment [1] has as its system human colorectal cancer cells (HCT116). Briefly: Growth inhibition assay (cytotoxicity) in HCT116. It is filed as cell-based. The following applies: HCT-116. The procedure: as §1

In general, IC50 refers to the midpoint of a concentration-inhibition curve. Read a low IC50 as greater potency.

Regarding `CC(C)c1cc(-c2onc(Cn3ccnn3)c2-c2ccsc2)c(O)cc1O` [Compound I-5, 4-(3-((1H-1,2,3-Triazol-1-yl)methyl)-4-(thiophen-3-yl)isoxazol-5-yl)-6-isopro pylbenzene-1,3-diol], the IC50 on yeast HSP90 was > 1000 nM; in experiment [1], < 500 nM.
The matching figures for `CCNC(=O)c1noc(-c2cc(C(C)C)c(O)cc2O)c1-c1cc(/C=N/O)no1` [Compound I-53, 5-(2,4-Dihydroxy-5-isopropylphenyl)-N-ethyl-3′-((hydroxyimino)methyl)-4,5′-biisoxazole-3-carboxamide]: 500 to 1000 nM and < 500 nM.
For the compound `CCNC(=O)c1noc(-c2cc(C(C)C)c(O)cc2O)c1-c1noc(-c2cccs2)n1` [Compound I-77, 5-(2,4-Dihydroxy-5-isopropylphenyl)-N-ethyl-4-(5-(thiophen-2-yl)-1,2,4-oxadiazol-3-yl)isoxazole-3-carboxamide], the IC50 was 500 to 1000 nM against yeast HSP90 and < 500 nM in experiment [1].
On to `CCNC(=O)c1noc(-c2cc(C(C)C)c(O)cc2O)c1-c1cc(CN)no1` [Compound I-30, 3′-(Aminomethyl)-5-(2,4-dihydroxy-5-isopropylphenyl)-N-ethyl-4,5′-biisoxazole-3-carboxamide], for which the IC50 was 500 to 1000 nM on yeast HSP90 and < 500 nM in experiment [1].
`CCNC(=O)c1noc(-c2cc(C(C)C)c(O)cc2O)c1-c1noc(CN2CCCC2)n1` [Compound I-95, 5-(2,4-Dihydroxy-5-isopropylphenyl)-N-ethyl-4-(5-(pyrrolidin-1-ylmethyl)-1,2,4-oxadiazol-3-yl)isoxazole-3-carboxamide]: the IC50 on yeast HSP90 is 500 to 1000 nM; in experiment [1], < 500 nM.
In the case of `CCNC(=O)c1noc(-c2cc(C(C)C)c(O)cc2O)c1-c1cc(COS(C)(=O)=O)no1` [Compound I-32, (5-(2,4-Dihydroxy-5-isopropylphenyl)-3-(ethylcarbamoyl)-4,5′-biisoxazol-3′-yl)methyl methanesulfonate], the IC50 (on yeast HSP90; in experiment [1]) was < 500 nM in each case.
In the case of `CCNC(=O)c1noc(-c2cc(C(C)C)c(O)cc2O)c1-c1cc(CN2CCCCC2)no1` [Compound I-38, 5-(2,4-Dihydroxy-5-isopropylphenyl)-N-ethyl-3′-(piperidin-1-ylmethyl)-4,5′-biisoxazole-3-carboxamide], the IC50 at yeast HSP90 is 500 to 1000 nM; in experiment [1] it was < 500 nM.
Consider `CCNC(=O)c1noc(-c2cc(C(C)C)c(O)cc2O)c1-c1noc(C(=O)N(CC)CC)n1` [Compound I-74, 3-(5-(2,4-Dihydroxy-5-isopropylphenyl)-3-(ethylcarbamoyl)isoxazol-4-yl)-N,N-diethyl-1,2,4-oxadiazole-5-carboxamide], for which the IC50 (against yeast HSP90; in experiment [1]) was 500 to 1000 nM in each case.
Turning to `CCNC(=O)c1noc(-c2cc(C(C)C)c(O)cc2O)c1-c1ccc(CN2CCOCC2)s1` [Compound I-1, 5-(2,4-Dihydroxy-5-isopropylphenyl)-N-ethyl-4-(5-(morpholinomethyl)thiophen-2-yl)isoxazole-3-carboxamide], the IC50 (at yeast HSP90; in experiment [1]) was < 500 nM each time.
For the compound `CCNC(=O)c1noc(-c2cc(C(C)C)c(O)cc2O)c1-c1cnn(C)c1` [Compound I-102, 5-(2,4-Dihydroxy-5-isopropylphenyl)-N-ethyl-4-(1-methyl-1H-pyrazol-4-yl)isoxazole-3-carboxamide], the IC50 (against yeast HSP90; in experiment [1]) was < 500 nM in each case.
Consider `CCNC(=O)c1cc(-c2c(C(=O)NCC)noc2-c2cc(C(C)C)c(O)cc2O)on1` [Compound I-16, 5-(2,4-Dihydroxy-5-isopropylphenyl)-N^3,N^3′-diethyl-4,5′-biisoxazole-3,3′-dicarboxamide], for which the IC50 (against yeast HSP90; in experiment [1]) was < 500 nM in each case.
As for `CCNC(=O)c1noc(-c2cc(C(C)C)c(O)cc2O)c1-c1nnnn1CC` [Compound I-13, 5-(2,4-Dihydroxy-5-isopropylphenyl)-N-ethyl-4-(1-ethyl-1H-tetrazol-5-yl)isoxazole-3-carboxamide], the IC50 (against yeast HSP90; in experiment [1]) was < 500 nM each time.
Take `CCNC(=O)c1noc(-c2cc(C(C)C)c(O)cc2O)c1-c1cc(C(OC)OC)no1` [Compound I-51, 5-(2,4-Dihydroxy-5-isopropylphenyl)-3′-(dimethoxymethyl)-N-ethyl-4,5′-biisoxazole-3-carboxamide]: the IC50 (against yeast HSP90; in experiment [1]) was < 500 nM each time.
For `CCNC(=O)c1noc(-c2cc(C(C)C)c(O)cc2O)c1-c1cc(C#N)no1` [Compound I-48, 3′-Cyano-5-(2,4-dihydroxy-5-isopropylphenyl)-N-ethyl-4,5′-biisoxazole-3-carboxamide], the IC50 against yeast HSP90 was 500 to 1000 nM; in experiment [1] it was < 500 nM.
The matching figures for `CCNC(=O)c1noc(-c2cc(C(C)C)c(O)cc2O)c1-c1cc(C(=O)NC)no1` [Compound I-56, 5-(2,4-Dihydroxy-5-isopropylphenyl)-N^3-ethyl-N^3′-methyl-4,5′-biisoxazole-3,3′-dicarboxamide]: < 500 nM and < 500 nM.
On to `CCNC(=O)c1noc(-c2cc(C(C)C)c(O)cc2O)c1-c1noc([C@H](C)O)n1` [Compound I-83, (S)-5-(2,4-Dihydroxy-5-isopropylphenyl)-N-ethyl-4-(5-(1-hydroxyethyl)-1,2,4-oxadiazol-3-yl)isoxazole-3-carboxamide], for which the values for the IC50 (on yeast HSP90; in experiment [1]) were 500 to 1000 nM and < 500 nM, respectively.
On the same counts, the results for `CCNC(=O)c1noc(-c2cc(C(C)C)c(O)cc2O)c1-c1ccn(C)n1` [Compound I-97, 5-(2,4-Dihydroxy-5-isopropylphenyl)-N-ethyl-4-(1-methyl-1H-pyrazol-3-yl)isoxazole-3-carboxamide] are 500 to 1000 nM and < 500 nM.
Take `CCNC(=O)c1noc(-c2cc(C(C)C)c(O)cc2O)c1-c1noc(C(=O)N2CCCC2)n1` [Compound I-68, 5-(2,4-Dihydroxy-5-isopropylphenyl)-N-ethyl-4-(5-(pyrrolidine-1-carbonyl)-1,2,4-oxadiazol-3-yl)isoxazole-3-carboxamide]: the IC50 is 500 to 1000 nM at yeast HSP90 and < 500 nM in experiment [1].
The matching figures for `CCNC(=O)c1noc(-c2cc(C(C)C)c(O)cc2O)c1-c1noc(CN2CCOCC2)n1` [Compound I-92, 5-(2,4-Dihydroxy-5-isopropylphenyl)-N-ethyl-4-(5-(morpholinomethyl)-1,2,4-oxadiazol-3-yl)isoxazole-3-carboxamide]: 500 to 1000 nM and < 500 nM.
The matching figures for `CCNC(=O)c1noc(-c2cc(C(C)C)c(O)cc2O)c1-c1ccnn1C` [Compound I-98, 5-(2,4-Dihydroxy-5-isopropylphenyl)-N-ethyl-4-(1-methyl-1H-pyrazol-5-yl)isoxazole-3-carboxamide]: < 500 nM and < 500 nM.
On the same counts, the results for `CCNC(=O)c1noc(-c2cc(C(C)C)c(O)cc2O)c1-c1noc(C(=O)OC)n1` [Compound I-58, Methyl 3-(5-(2,4-dihydroxy-5-isopropylphenyl)-3-(ethylcarbamoyl)isoxazol-4-yl)-1,2,4-oxadiazole-5-carboxylate] are 500 to 1000 nM and > 1000 nM.
As for `CCNC(=O)c1noc(-c2cc(C(C)C)c(O)cc2O)c1-c1cc(COCC(=O)OC)no1` [Compound I-19, Methyl 2-((5-(2,4-dihydroxy-5-isopropylphenyl)-3-(ethylcarbamoyl)-4,5′-biisoxazol-3′-yl)methoxy)acetate], the IC50 (on yeast HSP90; in experiment [1]) was < 500 nM each time.
On to `CCNC(=O)c1noc(-c2cc(C(C)C)c(O)cc2O)c1-c1cc(/C=N/OC)no1` [Compound I-52, 5-(2,4-Dihydroxy-5-isopropylphenyl)-N-ethyl-3′-((methoxyimino)methyl)-4,5′-biisoxazole-3-carboxamide], for which the IC50 (against yeast HSP90; in experiment [1]) was < 500 nM throughout.
As for `CC(=O)NCc1noc(-c2cc(C(C)C)c(O)cc2O)c1-c1ccsc1` [Compound I-6, N-((5-(2,4-Dihydroxy-5-isopropylphenyl)-4-(thiophen-3-yl)isoxazol-3-yl)methyl)acetamide], the IC50 was > 1000 nM against yeast HSP90 and < 500 nM in experiment [1].
The matching figures for `CCNC(=O)c1noc(-c2cc(C(C)C)c(O)cc2O)c1-c1noc(CN(C)C)n1` [Compound I-93, 5-(2,4-Dihydroxy-5-isopropylphenyl)-4-(5-((dimethylamino)methyl)-1,2,4-oxadiazol-3-yl)-N-ethylisoxazole-3-carboxamide]: 500 to 1000 nM and < 500 nM.
On the same counts, the results for `CCNC(=O)c1noc(-c2cc(C(C)C)c(O)cc2O)c1-c1noc(S)n1` [Compound I-82, 5-(2,4-Dihydroxy-5-isopropylphenyl)-N-ethyl-4-(5-mercapto-1,2,4-oxadiazol-3-yl)isoxazole-3-carboxamide] are 500 to 1000 nM and 500 to 1000 nM.
On the same counts, the results for `CCNC(=O)c1noc(-c2cc(C(C)C)c(O)cc2O)c1-c1cc(/C=N/OCC)no1` [Compound I-55, 5-(2,4-Dihydroxy-5-isopropylphenyl)-3′-((ethoxyimino)methyl)-N-ethyl-4,5′-biisoxazole-3-carboxamide] are 500 to 1000 nM and < 500 nM.
As to `CCNC(=O)c1noc(-c2cc(C(C)C)c(O)cc2O)c1-c1cc(CNC(=O)CC)no1` [Compound I-34, 5-(2,4-Dihydroxy-5-isopropylphenyl)-N-ethyl-3′-(propionamidomethyl)-4,5′-biisoxazole-3-carboxamide], the half-inhibitory concentration (IC50) (against yeast HSP90; in experiment [1]) was < 500 nM in each case.
Consider `CCNC(=O)c1noc(-c2cc(C(C)C)c(O)cc2O)c1-c1noc(CO)n1` [Compound I-81, 5-(2,4-Dihydroxy-5-isopropylphenyl)-N-ethyl-4-(5-(hydroxymethyl)-1,2,4-oxadiazol-3-yl)isoxazole-3-carboxamide], for which the results for the IC50 (against yeast HSP90; in experiment [1]) were 500 to 1000 nM and < 500 nM, respectively.
